Patent US20260055097A9, “NRF2 PROTEIN DEGRADERS” (Ganymede Oncology, Inc., priority 2022, published 2026)
Like-named read-outs stand apart in the source and are kept apart here.

Tests used:
Assay type in all cases: cell-based
A549 = test: Cancer cell viability, A549 (CellTiter-Glo); conditions: Homo sapiens, 72 h, A549 cells, 3 days, read-out: Cellular IC50 (μM) A549
Method: Representative Compounds of the Disclosure were tested in A549 (Vendor: ATCC; Cat #CCL-185; Description: lung, carcinoma) and/or LK-2 (Vendor: Riken; Cat #RCB1970; Description: lung, squamous cell carcinoma) cellular viability assays according to the following general protocol. • 1. Observed the cells under microscope. • 2. Aspirated the media and added 5 mL trypsin and incubate for 3 mins. • 3. Added 10 mL fresh media and harvested all the cells in to 15 mL tubes. • 4. Centrifuged the cells at 1000 rpm for 5 mins. • 5. Re-suspended the cells with 11 mL media and took 1 mL to determine the cell number and viability. • 6. Prepared cells suspension at 20 K/mL (A549) or 35 K/mL (LK-2) • 7. Seeded the cells into 96-well plate and incubated for overnight. • 8. […] After 3 days, took out the plates from the incubator and observed the cells under microscope. • 10. Passed a film at the bottom of the plates. • 11. Equilibrated the plate and its contents at room temperature for approximately 30 minutes. • 12. Thawed the CellTiter-Glo® Buffer and equilibrated to room temperature prior to use. • 13. Equilibrated the lyophilized CellTiter-Glo® Substrate to room temperature prior to use. • 14. Transferred 100 ml of CellTiter-Glo® Buffer into the amber bottle containing CellTiter-Glo® Substrate to reconstituted the lyophilized enzyme/substrate mixture. • 15. Mixed by gently vortexing, swirling or inverting the contents to obtain a homogeneous solution. • 16. Added 100 μL CellTiter-Glo® Reagent into each well • 17. Mixed contents for 15 minutes on an orbital shaker to induce cell lysis. • 18. Recorded luminescence with EnSpire machine. • 19. Passed the raw data into the file and analyzed the data with XLfit software.

LK-2 = test: Cancer cell viability, LK-2 (CellTiter-Glo); conditions: Homo sapiens, LK-2, 72 h, LK-2 cells, 3 days, read-out: Cellular IC50 (μM) LK-2
Method: Representative Compounds of the Disclosure were tested in A549 (Vendor: ATCC; Cat #CCL-185; Description: lung, carcinoma) and/or LK-2 (Vendor: Riken; Cat #RCB1970; Description: lung, squamous cell carcinoma) cellular viability assays according to the following general protocol. • 1. Observed the cells under microscope. • 2. Aspirated the media and added 5 mL trypsin and incubate for 3 mins. • 3. Added 10 mL fresh media and harvested all the cells in to 15 mL tubes. • 4. Centrifuged the cells at 1000 rpm for 5 mins. • 5. Re-suspended the cells with 11 mL media and took 1 mL to determine the cell number and viability. • 6. Prepared cells suspension at 20 K/mL (A549) or 35 K/mL (LK-2) • 7. Seeded the cells into 96-well plate and incubated for overnight. • 8. Added compounds into each well with a HPD300 machine (nine three-fold dilutions typically starting at 30 µM final concentration) and incubated for 3 days. • 9. After 3 days, took out the plates from the incubator and observed the cells under microscope. • 10. Passed a film at the bottom of the plates. • 11. Equilibrated the plate and its contents at room temperature for approximately 30 minutes. • 12. Thawed the CellTiter-Glo® Buffer and equilibrated to room temperature prior to use. • 13. Equilibrated the lyophilized CellTiter-Glo® Substrate to room temperature prior to use. • 14. Transferred 100 ml of CellTiter-Glo® Buffer into the amber bottle containing CellTiter-Glo® Substrate to reconstituted the lyophilized enzyme/substrate mixture. • 15. Mixed by gently vortexing, swirling or inverting the contents to obtain a homogeneous solution. • 16. Added 100 μL CellTiter-Glo® Reagent into each well • 17. Mixed contents for 15 minutes on an orbital shaker to induce cell lysis. • 18. Recorded luminescence with EnSpire machine. • 19. Passed the raw data into the file and analyzed the data with XLfit software.

Nrf2 = target: T1, Nrf2 (Homo sapiens, UniProt Q16236); test: Nrf2 degradation in A549 HiBiT-Nrf2 cells, Nano-Glo HiBiT lytic detection (HiBiT readout); parameters: host or cells: A549 HiBiT-Nrf2 cells (engineered line bought from Promega)
T1 sequence (Q16236 1-605): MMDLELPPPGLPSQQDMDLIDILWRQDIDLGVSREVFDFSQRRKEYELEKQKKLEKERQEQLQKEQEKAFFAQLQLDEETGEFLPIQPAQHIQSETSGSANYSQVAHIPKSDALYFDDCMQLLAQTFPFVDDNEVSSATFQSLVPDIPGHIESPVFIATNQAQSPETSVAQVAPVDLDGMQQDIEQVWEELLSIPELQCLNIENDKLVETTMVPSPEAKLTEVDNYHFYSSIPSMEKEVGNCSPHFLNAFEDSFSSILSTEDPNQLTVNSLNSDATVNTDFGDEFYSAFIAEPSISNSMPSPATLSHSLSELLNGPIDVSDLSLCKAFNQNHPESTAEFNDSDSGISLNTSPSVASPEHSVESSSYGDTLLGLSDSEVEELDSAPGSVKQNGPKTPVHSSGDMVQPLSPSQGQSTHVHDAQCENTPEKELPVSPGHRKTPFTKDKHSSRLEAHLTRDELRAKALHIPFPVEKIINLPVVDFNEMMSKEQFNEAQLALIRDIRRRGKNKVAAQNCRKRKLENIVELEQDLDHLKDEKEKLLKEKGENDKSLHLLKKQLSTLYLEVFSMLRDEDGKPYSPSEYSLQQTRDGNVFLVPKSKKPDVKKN
Method: A549 HiBiT-Nrf2 cells (Promega, Cat. No. CS3023219) were seeded into 384-well plates at cell density of 5,000 cells/well in 40 μL of cell culture medium (Ham's F-12 Nutrient Mix supplemented with 10% FBS and 1% antibiotic-antimycotic).
The next day, cells were treated with representative Compounds of the Disclosure and incubated for 6 h and 20 h at 37° C., 5% CO2. Staurosporine was used as a control.
At the end of incubation Nrf2 degradation (HiBiT readout) and cell viability (CellTiter-Glo readout) were determined. For HiBiT readout, Nano-Glo HiBiT Reagent mix (Promega, Cat. No. N3050) was added to wells, plates were incubated 2 min on an orbital shaker and incubated at room temperature in the dark for additional 30 minutes. At the end of incubation luminescence was measured using ultrasensitive luminescence mode (Envision, Perkin Elmer).

[1] = 20 h, read-out: DC50 (nM) at 20 h
[2] = 6 h, read-out: DC50 (nM) at 6 h

SMILES | IC50 (A549) [µM] | IC50 (LK-2) [µM] | DC50 (Nrf2; [1]) [nM] | DC50 (Nrf2; [2]) [nM]
Cc1ccccc1C(=O)N1CCc2cc(-c3nc(NC(=O)Cc4cccc(OCCCNc5cccc6c5C(=O)N(C5CCC(=O)NC5=O)C6=O)c4)sc3C)ccc21 (centres unmarked) [Cpd. No. 6, 2-(3-(3-((2-(2,6-dioxopiperidin-3-yl)-1,3-dioxoisoindolin-4-yl)amino)propoxy)phenyl)-N-(5-methyl-4-(1-(2-methylbenzoyl)indolin-5-yl)thiazol-2-yl)acetamide] | > 30 | > 30 | – | –
Cc1ccccc1C(=O)N1CCc2cc(-c3nc(NC(=O)Cc4cccc(OCCOCCOCCOc5ccc6c(c5)C(=O)N(C5CCC(=O)NC5=O)C6=O)c4)sc3C)ccc21 (centres unmarked) [Cpd. No. 19, 2-(3-(2-(2-(2-((2-(2,6-dioxopiperidin-3-yl)-1,3-dioxoisoindolin-5-yl)oxy)ethoxy)ethoxy)ethoxy)phenyl)-N-(5-methyl-4-(1-(2-methylbenzoyl)indolin-5-yl)thiazol-2-yl)acetamide] | 11 | 2.5 | – | –
Cc1ccccc1C(=O)N1CCc2cc(-c3nc(NC(=O)Cc4cccc(OCCOCCOCCNc5ccc6c(c5)C(=O)N(C5CCC(=O)NC5=O)C6=O)c4)sc3C)ccc21 (centres unmarked) [Cpd. No. 21, 2-(3-(2-(2-(2-((2-(2,6-dioxopiperidin-3-yl)-1,3-dioxoisoindolin-5-yl)amino)ethoxy)ethoxy)ethoxy)phenyl)-N-(5-methyl-4-(1-(2-methylbenzoyl)indolin-5-yl)thiazol-2-yl)acetamide] | > 30 | > 30 | – | –
Cc1sc(NC(=O)Cc2cccc(OCCOCCNc3ccc4c(c3)C(=O)N(C3CCC(=O)NC3=O)C4=O)c2)nc1-c1ccc2c(c1)CCN2C(=O)C1CC1 (centres unmarked) [Cpd. No. 22, N-(4-(1-(cyclopropanecarbonyl)indolin-5-yl)-5-methylthiazol-2-yl)-2-(3-(2-(2-((2-(2,6-dioxopiperidin-3-yl)-1,3-dioxoisoindolin-5-yl)amino)ethoxy)ethoxy)phenyl) acetamide] | 0.3 | 0.06 | – | –
Cc1sc(NC(=O)Cc2cccc(OCCC3CCN(c4ccc5c(c4)C(=O)N(C4CCC(=O)NC4=O)C5=O)CC3)c2)nc1-c1ccc2c(c1)CCN2C(=O)C1CC1 (centres unmarked) [Cpd. No. 68, N-(4-(1-(cyclopropanecarbonyl)indolin-5-yl)-5-methylthiazol-2-yl)-2-(3-(2-(1-(2-(2,6-dioxopiperidin-3-yl)-1,3-dioxoisoindolin-5-yl)piperidin-4-yl)ethoxy)phenyl)acetamide] | > 30 | – | < 300 | –
Cc1sc(NC(=O)Cc2cccc(OCCCCCNc3cccc4c3CN(C3CCC(=O)NC3=O)C4=O)c2)nc1-c1ccc2c(c1)CCN2C(=O)C1CC1 (centres unmarked) [Cpd. No. 69, N-(4-(1-(cyclopropanecarbonyl)indolin-5-yl)-5-methylthiazol-2-yl)-2-(3-((5-((2-(2,6-dioxopiperidin-3-yl)-1-oxoisoindolin-4-yl)amino)pentyl)oxy)phenyl)acetamide] | 0.18 | – | < 300 | < 300
Cc1sc(NC(=O)Cc2cccc(OCCCCCCCCNc3cccc4c3C(=O)N(C3CCC(=O)NC3=O)C4=O)c2)nc1-c1ccc2c(c1)CCN2C(=O)C1CC1 (centres unmarked) [Cpd. No. 72, N-(4-(1-(cyclopropanecarbonyl)indolin-5-yl)-5-methylthiazol-2-yl)-2-(3-((8-((2-(2,6-dioxopiperidin-3-yl)-1,3-dioxoisoindolin-4-yl)amino)octyl)oxy)phenyl)acetamide] | 0.23 | – | > 3000 | –
Cc1ncccc1C(=O)N1CCc2cc(-c3nc(NC(=O)Cc4cccc(OCCOCCNc5cccc6c5C(=O)N(C5CCC(=O)NC5=O)C6=O)c4)sc3C)ccc21 (centres unmarked) [Cpd. No. 76, 2-(3-(2-(2-((2-(2,6-dioxopiperidin-3-yl)-1,3-dioxoisoindolin-4-yl)amino)ethoxy)ethoxy)phenyl)-N-(5-methyl-4-(1-(2-methylnicotinoyl)indolin-5-yl)thiazol-2-yl)acetamide] | 0.011 | – | < 300 | > 3000
Cc1cnccc1C(=O)N1CCc2cc(-c3nc(NC(=O)Cc4cccc(OCCOCCNc5cccc6c5C(=O)N(C5CCC(=O)NC5=O)C6=O)c4)sc3C)ccc21 (centres unmarked) [Cpd. No. 77, 2-(3-(2-(2-((2-(2,6-dioxopiperidin-3-yl)-1,3-dioxoisoindolin-4-yl)amino)ethoxy)ethoxy)phenyl)-N-(5-methyl-4-(1-(3-methylisonicotinoyl)indolin-5-yl)thiazol-2-yl)acetamide] | 0.0077 | – | < 300 | > 3000
Cc1ccncc1C(=O)N1CCc2cc(-c3nc(NC(=O)Cc4cccc(OCCOCCNc5cccc6c5C(=O)N(C5CCC(=O)NC5=O)C6=O)c4)sc3C)ccc21 (centres unmarked) [Cpd. No. 78, 2-(3-(2-(2-((2-(2,6-dioxopiperidin-3-yl)-1,3-dioxoisoindolin-4-yl)amino)ethoxy)ethoxy)phenyl)-N-(5-methyl-4-(1-(4-methylnicotinoyl)indolin-5-yl)thiazol-2-yl)acetamide] | 0.0059 | – | < 300 | > 3000
Cc1cccnc1C(=O)N1CCc2cc(-c3nc(NC(=O)Cc4cccc(OCCOCCNc5cccc6c5C(=O)N(C5CCC(=O)NC5=O)C6=O)c4)sc3C)ccc21 (centres unmarked) [Cpd. No. 79, 2-(3-(2-(2-((2-(2,6-dioxopiperidin-3-yl)-1,3-dioxoisoindolin-4-yl)amino)ethoxy)ethoxy)phenyl)-N-(5-methyl-4-(1-(3-methylpicolinoyl)indolin-5-yl)thiazol-2-yl)acetamide] | 0.043 | – | < 300 | > 3000
COc1ccncc1C(=O)N1CCc2cc(-c3nc(NC(=O)Cc4cccc(OCCOCCNc5cccc6c5C(=O)N(C5CCC(=O)NC5=O)C6=O)c4)sc3C)ccc21 (centres unmarked) [Cpd. No. 80, 2-(3-(2-(2-((2-(2,6-dioxopiperidin-3-yl)-1,3-dioxoisoindolin-4-yl)amino)ethoxy)ethoxy)phenyl)-N-(4-(1-(4-methoxynicotinoyl)indolin-5-yl)-5-methylthiazol-2-yl)acetamide] | 0.075 | – | – | > 3000
